Experimental findings from DBAASP are described below.

Converted amounts (≈) assume the structure as drawn. “And” between values parts separate entries of the source, which are not always exact repeats. Equal values may be shown once.

Holding throughout (experiment): ≥ marks a high value that may be exact or a test limit, other limits are often not marked, values filed in µg/mL are converted to µM
The subject of assay [1] is Micrococcus luteus A270.
For assay [2], the system named is Escherichia coli SBS 363.
Assay [3] deals with Cryptococcus neoformans.
The test system of assay [4] is Pseudomonas aeruginosa ATCC 27853.
Assay [5] concerns Penicillium expansum.
Assay [6] has as its system Cladosporium sp.
For assay [7], the system named is Staphylococcus aureus ATCC 33591.
For assay [8], the system named is Escherichia coli ATCC 11229.
Assay [9] relates to Staphylococcus epidermidis ATCC 12228.
Assay [10] concerns Klebsiella pneumoniae ATCC 13866.
The subject of assay [11] is Staphylococcus aureus ATCC 29213.
The test system of assay [12] is Staphylococcus aureus ATCC 25923.
Assay [13] relates to Staphylococcus aureus NBRC 13276.
The subject of assay [14] is Staphylococcus epidermidis NBRC 12298.
The subject of assay [15] is Pseudomonas aeruginosa NBRC 13275.
Assay [16] concerns Escherichia coli DH5alpha.
The subject of assay [17] is Aeromonas hydrophila ATCC 35654.
The subject of assay [18] is Micrococcus luteus ATCC 49732.
The subject of assay [19] is Escherichia coli ATCC 25922.
The subject of assay [20] is Micrococcus luteus NBRC 3333.
The test system of assay [21] is Staphylococcus epidermidis NBRC 12993.
Assay [22] concerns Candida viswanathii NBRC 10321.
For assay [23], the system named is Escherichia coli NBRC 3972.
For assay [24], the system named is Pseudomonas putida NBRC 100650.
Assay [25] deals with Aspergillus oryzae NBRC 100959.
Assay [26] concerns Lacticaseibacillus rhamnosus 1.0911.
The test system of assay [27] is Escherichia coli UB1005.
Assay [28] deals with Lacticaseibacillus rhamnosus 1.0386.
Assay [29] has as its system Staphylococcus aureus ATCC 43300.
In assay [30] the test system is Lactiplantibacillus plantarum 8014.
Assay [31] relates to Lacticaseibacillus rhamnosus 1.0385.
Assay [32] relates to Lacticaseibacillus rhamnosus 7469.
In assay [33] the test system is Lacticaseibacillus rhamnosus 1.0925.
Assay [34] relates to Staphylococcus aureus.
Assay [35] deals with Escherichia coli.
The test system of assay [36] is Candida albicans ATCC 24433.
In assay [37] the test system is Trichophyton rubrum ATCC 28189.
Assay [38] concerns Candida parapsilosis ATCC 22019.
Assay [39] has as its system Staphylococcus aureus M838-17.
Assay [40] deals with Escherichia coli K-12.
In assay [41] the test system is Escherichia coli E423-17.
Assay [42] has as its system Escherichia coli E416-17.
The test system of assay [43] is Staphylococcus aureus USA 300.

As for `CSCC[C@H](NC(=O)CNC(=O)[C@H](Cc1ccccc1)NC(=O)[C@H](Cc1ccccc1)NC(=O)CNC(=O)[C@H](C)NC(=O)[C@H](C)NC(=O)[C@@H]1CCCN1C(=O)[C@H](C)N)C(=O)N[C@@H](CCCN=C(N)N)C(=O)O` [APAAGFFGMR], the MIC is at least 164 µM in assay [1]; at least 82 µM in [2]; at least 164 µM in [3]; 164 µM and > 82 µM in [4]; at least 164 µM in assay [5]; at least 164 µM in assay [6].
In the case of `CC[C@H](C)[C@H](NC(=O)CN)C(=O)N[C@@H](C)C(=O)NCC(=O)N[C@@H](CC(C)C)C(=O)N[C@@H](CC(C)C)C(=O)N[C@@H](CCCN=C(N)N)C(=O)N[C@@H](CO)C(=O)N[C@@H](Cc1ccccc1)C(=O)N[C@H](C(=O)N[C@@H](CCCN=C(N)N)C(=O)N[C@@H](CCSC)C(=O)N[C@@H](CC(C)C)C(=O)N[C@@H](C)C(=O)N[C@@H](CCCCN)C(=O)N[C@H](C(=O)N[C@@H](CCSC)C(=O)NCC(=O)NCC(=O)O)[C@@H](C)CC)C(C)C` [GIAGLLRSFVRMLAKIMGG], the MIC is at least 64.3 µM in [7]; at least 32.2 µM in [8]; 32.2 µM (≈ 64 µg/mL) in [9]; at least 32.2 µM in assay [10]; 32.2 µM (≈ 64 µg/mL) in assay [11]; 8.04 µM (≈ 16 µg/mL) in [4]. Moreover, the MIC in assay [12] turned out to be 32.2 µM (≈ 64 µg/mL).
In the case of `CC[C@H](C)[C@H](NC(=O)CN)C(=O)N[C@@H](CCCCN)C(=O)N[C@@H](CCCCN)C(=O)N[C@@H](Cc1ccccc1)C(=O)N[C@@H](CC(C)C)C(=O)N[C@@H](CCCCN)C(=O)N[C@@H](CO)C(=O)N[C@@H](C)C(=O)N[C@@H](CCCCN)C(=O)N[C@@H](CCCCN)C(=O)N[C@@H](Cc1ccccc1)C(=O)N[C@H](C(=O)N[C@@H](CCCCN)C(=O)N[C@@H](C)C(=O)N[C@@H](Cc1ccccc1)C(=O)N[C@@H](CCCCN)C(N)=O)C(C)C` [GIKKFLKSAKKFVKAFK], the MIC amounted to 6.25 µM (≈ 12.3 µg/mL) in assay [13], 3.12 µM (≈ 6.15 µg/mL) in [14], 1.56 µM (≈ 3.07 µg/mL) in assay [15] and 3.12 µM (≈ 6.15 µg/mL) in assay [16].
Take `CC[C@H](C)[C@H](NC(=O)[C@H](CC(C)C)NC(=O)[C@H](CCC(N)=O)NC(=O)[C@@H](NC(=O)[C@H](CCCN=C(N)N)NC(=O)[C@@H](NC(=O)[C@H](CS)NC(=O)[C@H](CCCCN)NC(=O)[C@@H](N)CCCN=C(N)N)C(C)C)C(C)C)C(=O)N[C@@H](CCCCN)C(=O)N[C@@H](CC(N)=O)C(=O)NCC(=O)N[C@@H](CCCCN)C(=O)N[C@@H](CCCCN)C(=O)N[C@H](C(=O)N[C@H](C(=O)N[C@@H](C)C(=O)N[C@@H](Cc1ccccc1)C(N)=O)[C@@H](C)O)[C@@H](C)CC` [RKCVRVQLIKNGKKITAF]: the MIC was determined as 8.4 µM (≈ 17.7 µg/mL) in assay [17], 7.2 µM (≈ 15.1 µg/mL) in assay [18], 7.2 µM (≈ 15.1 µg/mL) in [12] and 8.4 µM (≈ 17.7 µg/mL) in [19].
For the compound `CC[C@H](C)[C@H](NC(=O)[C@H](CCCCN)NC(=O)[C@@H](N)CCCN=C(N)N)C(=O)N[C@@H](CCCCN)C(=O)N[C@H](C(=O)N[C@@H](Cc1ccc(O)cc1)C(=O)N[C@@H](CC(C)C)C(=O)N[C@@H](CCCN=C(N)N)C(=O)N[C@@H](CCCN=C(N)N)C(=O)N[C@@H](CCSC)C(=O)N[C@@H](CCCCN)C(=O)O)C(C)C` [RKIKVYLRRMK], the MIC in [20] is 8.38 µM (≈ 12.5 µg/mL); in [21], at least 33.5 µM; in [22], 8.38 µM (≈ 12.5 µg/mL); in assay [23] it was 8.38 µM (≈ 12.5 µg/mL); in assay [24], at least 33.5 µM; in assay [25], 8.38 µM (≈ 12.5 µg/mL).
Take `NC(=O)[C@H](CCCN=C(N)N)NC(=O)[C@H](CCCN=C(N)N)NC(=O)[C@H](Cc1c[nH]c2ccccc12)NC(=O)[C@H](CO)NC(=O)[C@H](Cc1c[nH]c2ccccc12)NC(=O)[C@H](Cc1c[nH]c2ccccc12)NC(=O)[C@H](Cc1c[nH]c2ccccc12)NC(=O)[C@H](CO)NC(=O)[C@H](Cc1c[nH]c2ccccc12)NC(=O)[C@H](CCCN=C(N)N)NC(=O)[C@@H](N)CCCN=C(N)N` [RRWSWWWSWRR]: the MIC in assay [26] was at least 64 µM; in assay [27], 2 µM (≈ 3.49 µg/mL); in assay [28] it was at least 64 µM; in assay [29] it was 2 µM (≈ 3.49 µg/mL); in assay [9], 4 µM (≈ 6.99 µg/mL); in assay [4] it was 4 µM (≈ 6.99 µg/mL). In addition, the MIC in assay [30], in assay [31], in [32] and in assay [33] was at least 64 µM in each case.
With `CC[C@H](C)[C@H](NC(=O)[C@H](CCCCN)NC(=O)[C@H](CCC(=O)O)NC(=O)[C@H](CO)NC(=O)[C@H](CCCN=C(N)N)NC(=O)[C@@H](N)CO)C(=O)N[C@H](C(=O)N[C@@H](Cc1cnc[nH]1)C(=O)N[C@@H](CCC(N)=O)C(=O)N[C@@H](CC(C)C)C(=O)N[C@@H](Cc1ccccc1)C(N)=O)C(C)C` [SRSEKIVHQLF], the MIC in assay [34] was over 298 µM; in assay [35], over 298 µM; in assay [36], at least 298 µM; in [37], at least 298 µM; in [38] it was at least 298 µM.
Take `CC(C)C[C@H](NC(=O)[C@H](Cc1c[nH]c2ccccc12)NC(=O)[C@H](Cc1c[nH]c2ccccc12)NC(=O)[C@@H](N)Cc1c[nH]c2ccccc12)C(=O)N[C@@H](CCCN=C(N)N)C(=O)N[C@@H](CCCN=C(N)N)C(=O)N[C@@H](CCCN=C(N)N)C(=O)N[C@@H](Cc1c[nH]c2ccccc12)C(=O)O` [WWWLRRRW]: the MIC in [39] is 4 µM (≈ 5.38 µg/mL); in assay [40] it was 16 µM (≈ 21.5 µg/mL); in assay [41], at least 32 µM; in [42], 16 µM (≈ 21.5 µg/mL); in assay [43], 4 µM (≈ 5.38 µg/mL); in assay [19] it was 16 µM (≈ 21.5 µg/mL).
